Where a name gives a salt, the structure may show the parent alone.
Columns and labels:
[1] = free base form of the drug named as HCl salt; cited from earlier work
pH = type: physicochemical

## Clc1cccc(Cl)c1N=C1NCCN1 [clonidine-HCl]
[1]
  pKb of the free base form: 7

## phenylpropranolol-HCl
pH; free base form
  pH of the free base form: approximately 13

## C#CCN(C)[C@H](C)Cc1ccccc1 [selegiline-HCl]
Solubility in water
  solubility in water: readily soluble in water

## C#CCN(C)[C@H](C)Cc1ccccc1 [Selegiline free base, selegiline]
Solubility in water
  solubility in water: only sparingly soluble in water

## CCN(CC)CC [Triethylamine]
pH
  calculated pH: approximately 13.7
  measured pH: approximately 11.7

Source: patent US7638140B2, “Adhesive mixture for transdermal delivery of highly plasticizing drugs” (priority 1997, dated 2009)
